# Test results taken from US6867207B2, “IL-5 inhibiting 6-azauracil derivatives” (Janssen Pharmaceutica N.V., priority 1997, dated 2005).
# System: IL-5 production
# Assay: In vitro inhibition of IL-5 production in human blood (phytohemagglutinin-stimulated whole blood, ELISA);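 also: values marked with an asterisk were tested at 10 µM and unmarked values at 1 µM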
# Assay type: cell-based
# Conditions: test dose 1×10^−6 M, 48 hours
# Description: In Vitro Inhibition of IL-5 Production in Human Blood
# Human Whole Blood Stimulation
# Peripheral blood from healthy male donors was drawn into heparinized syringes (12.5 U heparin/ml). Blood samples were three-fold diluted in RMPI 1640 medium (Life Technologies, Belgium) supplemented with 2 mM L-glutamine, 100 U/ml penicillin and 100 μg/ml streptomycin, and 300 μl fractions were distributed in 24-well multidisc plates. Blood samples were preincubated (60 minutes at 37° C.) in a humidified 6% CO2-atmosphere with 100 μl of drug solvent (final concentration 0.02% dimethylsulfoxide in RPMI 1640) or with 100 μl of an appropriate dose of test compound before being stimulated by the addition of 100 μl of phytohemagglutinin HA17 (Murex, UK) at a final concentration of 2 μg/ml. After 48 hours, cell-free supernatant fluids were collected by centrifugation and stored at −70° C. until tested for the presence of IL-5.
# IL-5 measurements were conducted as described in Van Wauwe et al. (1996, Inflamm Res, 45, 357-363) on page 358 using ELISA.
# Table 9 lists the percentage inhibition of IL-5 production (column “% inh”) at a test dose of 1×10^−6 M, or in case the percentage inhibition is marked with an “*” 1×10^−5 M, the compounds of the present invention.
row,Compound,% inh. (percentage inhibition of IL-5 production) [%]
1,O=c1cnn(-c2cc(Cl)c(C(Sc3nc4cccnc4s3)c3ccc(Cl)cc3)c(Cl)c2)c(=O)[nH]1 (centres unmarked) [Compound 376],92
2,O=c1cnn(-c2ccc(C(c3ccc(Cl)cc3)c3nnc(-c4ccccc4)s3)c(Cl)c2)c(=O)[nH]1 (centres unmarked) [Comp 414],30
3,O=c1cnn(-c2ccc(C(Sc3ccc(C(F)(F)F)cn3)c3ccc(Cl)cc3)c(Cl)c2)c(=O)[nH]1 (centres unmarked) [Compound 88],26
4,O=c1cnn(-c2cc(Cl)c(C(c3ccc(Cl)cc3)c3csc(-c4cccc(Cl)c4)n3)c(Cl)c2)c(=O)[nH]1 (racemic) [Compound 371],88
5,Cc1cc(C(C)(c2ccc(Cl)c(C(F)(F)F)c2)c2nc(-c3ccccc3)c(C)s2)c(Cl)cc1-n1ncc(=O)[nH]c1=O (racemic) [Comp 238],74
6,O=c1cnn(-c2cc(Cl)c(C(c3ccc(Cl)cc3)c3nc(-c4ccccc4Cl)cs3)c(Cl)c2)c(=O)[nH]1 (racemic) [Comp 32],90
7,Cc1nc(-c2ccccc2)c(C(c2ccc(Cl)cc2)c2ccc(-n3ncc(=O)[nH]c3=O)cc2)s1 (racemic) [Compound 146],83
8,"O=c1cnn(-c2cc(Cl)c(C(c3ccc(Cl)cc3)c3csc(-c4ccccc4)n3)c(Cl)c2)c(=O)[nH]1 (racemic) [Compound 363, (±)-2-[3,5-dichloro-4-[(4-chlorophenyl)(2-phenyl-4-thiazoyl)methyl]phenyl]-1,2,4-triazine-3,5(2H,4H)-dione]",91
9,Cc1ccccc1-c1nnc(C(c2ccc(Cl)cc2)c2c(Cl)cc(-n3ncc(=O)[nH]c3=O)cc2Cl)o1 (racemic) [Compound 188],95
10,O=c1cnn(-c2cc(Cl)c(C(c3ccc(Cl)cc3)c3csc(-c4cccc(F)c4)n3)c(Cl)c2)c(=O)[nH]1 (racemic) [Compound 368],88
11,O=c1cnn(-c2ccc(C(Sc3nccs3)c3ccc(Cl)cc3)c(Cl)c2)c(=O)[nH]1 (racemic) [Compound 63],68
12,O=c1cnn(-c2cc(Cl)c(C(c3ccc(Cl)cc3)c3nnc(Cc4ccccc4)o3)c(Cl)c2)c(=O)[nH]1 (racemic) [Compound 173],44
13,"Cl.O=c1cnn(-c2cc(Cl)c(C(c3ccc(Cl)cc3)c3nc(C4CCNCC4)cs3)c(Cl)c2)c(=O)[nH]1 (racemic) [Compound 230, (±)-2-[3,5-dichloro-4-[(4-chlorophenyl)[4-(4-piperidinyl)-2-thiazolyl]methyl]phenyl]-1,2,4-triazin-3,5-(2H,4H)-dione monohydrochloride]",79
14,O=c1cnn(-c2cc(Cl)c(C(c3ccc(Cl)cc3)c3nc(-c4cc(Cl)ccc4Cl)cs3)c(Cl)c2)c(=O)[nH]1 (racemic) [Comp 257],82
15,CN(CCc1ccccc1)Cc1sc(C(c2ccc(Cl)cc2)c2c(Cl)cc(-n3ncc(=O)[nH]c3=O)cc2Cl)nc1-c1ccccc1 (racemic) [Comp 332],86
16,CC(c1ccc(Cl)c(C(F)(F)F)c1)(c1nnc(-c2ccccc2)o1)c1ccc(-n2ncc(=O)[nH]c2=O)cc1Cl (racemic) [Compound 155],80
17,O=c1cnn(-c2cc(Cl)c(C(c3ccc(Cl)cc3)c3nc(-c4ccccc4)c(Cc4ccccc4)s3)c(Cl)c2)c(=O)[nH]1 (racemic) [Comp 249],80
18,"O=c1cnn(-c2cc(Cl)c(C(c3ccc(Cl)cc3)c3nc(-c4ccccc4)c(CNC(=S)Nc4ccccc4)s3)c(Cl)c2)c(=O)[nH]1 (racemic) [Compound 331, (±)-N-[[2-[(4-chlorophenyl)[2,6-dichloro-(4,5-dihydro-3,5-dioxo-1,2,4-triazin-2(3H)-yl)phenyl]methyl]4-phenyl-5-thiazolyl]methyl]-N′-phenyl-thiourea]",95
19,O.O=c1cnn(-c2ccc(C(Sc3nccc(O)n3)c3ccc(Cl)cc3)c(Cl)c2)c(=O)[nH]1 (racemic) [Compound 61],14
20,Cc1ccnc(SC(c2ccc(Cl)cc2)c2ccc(-n3ncc(=O)[nH]c3=O)cc2Cl)n1 (racemic) [Compound 75],72
21,CC(c1ccc(Cl)c(F)c1)(c1nc(-c2ccccc2)cs1)c1c(Cl)cc(-n2ncc(=O)[nH]c2=O)cc1Cl (racemic) [Comp 288],90

row,Compound,% inh. (percentage inhibition of IL-5 production) [%]
1,O=c1cnn(-c2ccc(C(Sc3nccc(-c4cccs4)n3)c3ccc(Cl)cc3)c(Cl)c2)c(=O)[nH]1 (centres unmarked) [Compound 84],73
2,O=c1cnn(-c2cc(Cl)c(C(c3ccc(Cl)cc3)c3nnc(-c4cccs4)o3)c(Cl)c2)c(=O)[nH]1 (racemic) [Compound 166],87
3,Nc1ccc2nc(SC(c3ccc(Cl)c(C(F)(F)F)c3)c3c(Cl)cc(-n4ncc(=O)[nH]c4=O)cc3Cl)sc2c1 (centres unmarked) [Compound 389],91
4,COCCNC(c1ccc(Cl)cc1)c1ccc(-n2ncc(=O)[nH]c2=O)cc1Cl (racemic) [Compound 41],11
5,Cc1ccccc1-c1csc(C(c2ccc(Cl)cc2)c2c(Cl)cc(-n3ncc(=O)[nH]c3=O)cc2Cl)n1 (racemic) [Comp 243],97
6,O=c1cnn(-c2cc(Cl)c(C(c3ccc(Cl)cc3)c3nc(-c4cc(F)ccc4F)cs3)c(Cl)c2)c(=O)[nH]1 (racemic) [Comp 290],92
7,COc1ccccc1-c1nnc(C(c2ccc(Cl)cc2)c2c(Cl)cc(-n3ncc(=O)[nH]c3=O)cc2Cl)o1 (racemic) [Compound 174],83
8,CC(c1ccc(Cl)cc1)(c1nnc(-c2ccccc2)o1)c1ccc(-n2ncc(=O)[nH]c2=O)cc1Cl (racemic) [Comp 104],60
9,CS(=O)(=O)O.O.O.O=c1cnn(-c2cc(Cl)c(C(Sc3nccc(N4CCOCC4)n3)c3ccc(Cl)cc3)c(Cl)c2)c(=O)[nH]1 (racemic) [Compound 344],82
10,O=c1cnn(-c2cc(Cl)c(C(Sc3nc4ccccc4s3)c3ccc(Cl)cc3)c(Cl)c2)c(=O)[nH]1 (centres unmarked) [Compound 384],95
11,CS(=O)(=O)Nc1cccc(-c2nnc(C(c3ccc(Cl)cc3)c3c(Cl)cc(-n4ncc(=O)[nH]c4=O)cc3Cl)o2)c1 (racemic) [Compound 208],48
12,CCCc1sc(C(c2ccc(Cl)cc2)c2c(Cl)cc(-n3ncc(=O)[nH]c3=O)cc2Cl)nc1-c1ccccc1 (racemic) [Comp 245],98
13,CN1CCC(N(C)Cc2sc(C(c3ccc(Cl)cc3)c3c(Cl)cc(-n4ncc(=O)[nH]c4=O)cc3Cl)nc2-c2ccccc2)CC1 (racemic) [Comp 322],96
14,O=c1cnn(-c2cc(Cl)c(C(c3ccc(Cl)cc3)c3nc(-c4ccccc4)c(CN4CCOCC4)s3)c(Cl)c2)c(=O)[nH]1 (racemic) [Comp 292],94
15,O=C(NC1CCN(Cc2ccccc2)CC1)c1sc(C(c2ccc(Cl)cc2)c2c(Cl)cc(-n3ncc(=O)[nH]c3=O)cc2Cl)nc1-c1ccccc1 (racemic) [Comp 305],51
16,O=c1cnn(-c2cc(Cl)c(C(c3ccc(Cl)cc3)c3nnc(C4CCCCC4)o3)c(Cl)c2)c(=O)[nH]1 (racemic) [Compound 159],87
17,CCOC(=O)Cc1sc(C(c2ccc(Cl)cc2)c2c(Cl)cc(-n3ncc(=O)[nH]c3=O)cc2Cl)nc1-c1ccccc1 (racemic) [Comp 256],94
18,O=C(c1ccccc1)c1sc(C(c2ccc(Cl)cc2)c2c(Cl)cc(-n3ncc(=O)[nH]c3=O)cc2Cl)nc1-c1ccccc1 (racemic) [Comp 273],77
19,Cc1oc(C(c2ccc(Cl)cc2)c2c(Cl)cc(-n3ncc(=O)[nH]c3=O)cc2Cl)nc1-c1ccccc1 (centres unmarked) [Comp 426],92
20,COCCNC(=O)c1sc(C(c2ccc(Cl)cc2)c2c(Cl)cc(-n3ncc(=O)[nH]c3=O)cc2Cl)nc1-c1ccccc1 (racemic) [Comp 307],78
21,O=c1cnn(-c2cc(Cl)c(C(c3ccc(Cl)cc3)c3nnc(-c4cccc(F)c4)o3)c(Cl)c2)c(=O)[nH]1 (racemic) [Compound 160],91

# Same assay, conditions: test dose 1×10^−6 M, 48 hours, read-out: % inh. (percentage inhibition of IL-5 production)
row,Compound,inhibition at 1 µM [%]
1,"O=c1cnn(-c2cc(Cl)c(C(Sc3nccc(N4CCNCC4)n3)c3ccc(Cl)cc3)c(Cl)c2)c(=O)[nH]1 (racemic) [Compound 360, (±)-2-[3,5-dichloro-4-[(4-chlorophenyl)[[4-(1-piperazinyl)-2-pyrimidinyl]thio]methyl]phenyl]-1,2,4-triazine-3,5(2H,4H)-dione monohydrate]",84
2,"O=c1cnn(-c2cc(Cl)c(C(Sc3[nH]c(=S)[nH]c3-c3ccccc3)c3ccc(Cl)c(C(F)(F)F)c3)c(Cl)c2)c(=O)[nH]1 (racemic) [Compound 400, (±)-2-[3,5-dichloro-4-[[4-chloro-3-(trifluoromethyl)phenyl][(2,3-dihydro-5-phenyl-2-thioxo-1H-imidazol-4-yl)thio]-methyl]phenyl]-1,2,4-triazine-3,5(2H,4H)-dione]",76
